Measured values: patent US20140088144A1, “INHIBITING MICROBIAL INFECTIONS” (THE UNIVERSITY OF KANSAS, priority 2012, published 2014)

Key:
[1] = molecular target: T1, MBP-VirF (Shigella flexneri, UniProt P0A2T1); test: EMSA in vitro DNA binding by VirF (MBP-VirF); assay type: biochemical; conditions: purified MBP-VirF
T1 construct: made in house; host or cells: E. coli KS 1000, plasmid pMALvirF
Description: The IPTG inducible MBP-VirF expression plasmid, pMALvirF, was constructed by cloning virF downstream and in-frame with malE (encoding maltose binding protein, MBP) in the vector pMAL-c2X (New England Biolabs, Beverly, Mass.). MBP-VirF protein (referred to as VirF for simplicity) was purified using amylose affinity chromatography at 4° C. Briefly, pMALvirF was transformed into E. coli strain KS 1000 (New England Biolabs). The cells were grown to an OD600 of 0.5, transferred to 15° C., 0.1 mM IPTG was added, and then incubated overnight with shaking Cells were harvested and resuspended in 10 ml of binding buffer (20 mM Tris, 500 mM NaCl, 1 mM EDTA 1 mM DTT, pH 7.4). Cells were lysed by three freeze thaw cycles with lysozyme (0.4 mg/ml), tris (2-carboxyethyl)phosphine (TCEP, 1 mM) and phenylmethylsulfonyl fluoride (PMSF, 1 mM), at −80° C., followed by sonication and then centrifuged to remove cell debris. […]
Binding of purified VirF to a DNA fragment containing the VirF binding site at virB was analyzed by electrophoretic mobility shift assay (EMSA) (68), in the absence or presence of SE-1. […] Gels were scanned using an Odyssey infrared imager (LI-COR, Lincoln, Nebr.), and quantified using Odyssey software, version 3.0.30. […]

[2] = tested on: Shigella invasion of L-929 cells; test: Shigella invasion assay (gentamycin protection) in L-929 cells; assay type: cell-based, S. flexneri; conditions: for invasion decrease relative to no inhibitor: Shigella pre-grown with SE-1
Description: S. flexneri ipgD^− (SME4331) and mxiH^− (SB116) mutant strains were grown overnight at 30° C. and then diluted to an OD600 of ˜0.1 into TSB plus ampicillin. SE-1 (in DMSO) was added to the cultures at final concentrations of 0, 20, or 40 μM SE-1 and 0.3% DMSO. These cultures and SB116 (no SE-1) were grown at 37° C. in 24-well plates (each with 1.2 ml), in the temperature-controlled chamber of a PowerWave XS plate reader (BioTek Instruments). Bacterial growth was continued at 37° C. with shaking and OD600 monitored every 15 min. A separate sample of SME4331 was grown at 30° C. L-929 cells (mouse fibroblasts, used previously for Shigella invasion assays) that had been grown overnight to ˜90% confluency in 24-well plates were washed 3 times with 1 ml of RPMI each (without FBS or antibiotics), and the final wash was removed by aspiration. (All L-929 incubation steps were carried out at 37° C. in a 5% CO2 humidified atmosphere.) When the OD600 of the bacterial cultures reached 1.0 (˜2.5 h), samples were diluted 100-fold in pre-warmed RPMI (without FBS or antibiotics) and then 300 μl was added to each monolayer of L-929 cells, for a multiplicity of infection of roughly 20. In a control sample, 40 μM SE-1 and bacteria grown at 37° C. without SE-1 were added at the same time to L-929 cells. The 24-well plate was centrifuged (2000×g) for 5 min at room temperature to initiate bacterial-host cell contact, incubated for 45 min at 37° C., washed three times with 1 ml RPMI containing 50 μg/ml gentamycin (or without gentamycin for the control), and incubated at 37° C. for 2 h. Cells were again washed three times with 1 ml RPMI and then lysed in 100 μl of PBS (Mediatech) containing 0.1% triton X-100 (Promega, Madison, Wis.) for 10 min at room temperature. The 100 μl lysates from the gentamycin treated and untreated L-929 cells were mixed with 400 μl TSB, and 100 μl of 1:50 and 1:250 further dilutions were plated onto TSB agar containing ampicillin. Plates were incubated overnight at 37° C. and colonies were counted. The number of colonies obtained from gentamycin treated samples was divided by the number of colonies from control samples without gentamycin and multiplied by 100 to calculate the invasion index.

T1 sequence (P0A2T1 whole entry): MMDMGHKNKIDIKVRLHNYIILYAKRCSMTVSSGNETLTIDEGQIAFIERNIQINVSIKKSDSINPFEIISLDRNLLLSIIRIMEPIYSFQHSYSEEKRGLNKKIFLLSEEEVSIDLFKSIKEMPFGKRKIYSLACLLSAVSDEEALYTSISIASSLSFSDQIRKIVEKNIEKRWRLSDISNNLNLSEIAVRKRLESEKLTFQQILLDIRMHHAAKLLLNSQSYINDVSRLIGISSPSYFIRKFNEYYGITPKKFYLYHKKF

Question: With `CCCCN1C=C(c2ccc3ccccc3n2)C(C[N+](=O)[O-])c2ccccc21` (stereo not drawn) [Compound 1, 1-butyl-4-(nitromethyl)-3-quinolin-2-yl-4H-quinoline] as the compound, how does the “inhibition of DNA binding by VirF” value [1] read?
Answer: Its value is “similarly inhibits”.

Question: And the “inhibition of DNA binding by VirF” value ([1]; listed as SE-1)?
Answer: Its value is “fully inhibit DNA binding”.

Question: What about the “invasion decrease relative to no inhibitor” value ([2]; 20 μM) of the same compound?
Answer: Its value is 1.7 fold.

Question: And the “invasion when SE-1 and Shigella added at the same time to L-929 cells” value ([2]; 40 μM SE-1, Shigella grown at 37° C. without inhibitor)?
Answer: The value was “invaded to the same extent”.

Question: What about the “invasion decrease relative to no inhibitor” value ([2]; 40 μM) of the same compound?
Answer: The value was 3 fold.

Question: And the inhibition at 40 µM ([2]; Shigella, L929, read-out: maximum inhibition of invasion)?
Answer: The inhibition at 40 µM was 70%.
